Measurements reported in patent US20240099994A1, “LONG-ACTING INJECTABLE FORMULATIONS OF KETAMINE PAMOATE SALTS” (ALAR PHARMACEUTICAL INC., priority 2019, published 2024).
Where a name gives a salt, the structure may show the parent alone. Read-outs that look alike come from different tables or passages of the source.

Assays:
[1] = Intrinsic dissolution rate, rotating disk method (USP Chapter 1087); type: physicochemical; conditions: for Intrinsic dissolution rate: 50 rpm, average of three samples; for BCS solubility classification: pH 7.4 medium
Experimental: The intrinsic dissolution rate of the crystal and amorphous forms of ketamine pamoate salts was determined by using the intrinsic dissolution rotating disk method described in Chapter 1087 of the U.S. Pharmacopeia under the conditions of medium pH as 1.2, 4.5, 6.8 or 7.4, medium volume as 900 mL, rotating speed as 50 rpm, medium temperature as 37° C., and detection wavelength as 210 nm. The results were shown in Tables 7 and 8 and FIGS. 27 to 29.

[2] = tested on: DEX-induced depression-like animal model; assay: Forced swimming test (FST) in dexamethasone (DEX)-induced depression-like animal model; type: in vivo, ICR mice; conditions: DEX-treated mice, SC, 120 mg/kg ketamine free-base; for Immobility time on FST: 1 day after administration
Experimental: (§1) FIG. 43 is a diagram illustrating the protocol of dexamethasone (DEX)-induced depression-like animal model to evaluate the antidepressant effects of ketamine HCl (KET), R, S-ketamine pamoate salt (KEP), S-ketamine pamoate salt (S-KEP), and R-ketamine pamoate salt (R-KEP). ICR mice were intraperitoneally injected with saline or DEX at postnatal day 1 to 3 (P1 to P3) with dose decrement of 0.5 mg/kg, 0.3 mg/kg, and 0.1 mg/kg, respectively. The drugs for each group or saline group were administered subcutaneously at day 35 (P35, i.e., dosing day 0, D0), and the forced swimming test (FST) were conducted every 10 days from dosing day 1 (D1, P36) to P98. Evaluation of sedation behavior was also conducted by sedation rating scale from the time immediately post injection to dosing day 28 after drug administration.
Depression-like animal model induced by dexamethasone (hereinafter abbreviated as DEX) was used to evaluate the antidepressant effects of ketamine HCl (KET), R, S-ketamine pamoate salt (KEP), S-ketamine pamoate salt (S-KEP), and R-ketamine pamoate salt (R-KEP) at equivalent dose (120 mg/kg ketamine free-base). According to literature, depressive-like behaviors were observed on juvenile mice and adult mice which neonatally exposed to DEX. Protocol of this example was shown in FIG. 43 and described in detail below.
Neonatal ICR mice were intraperitoneally injected with saline or DEX on postnatal day 1, 2, and 3 (P1 to P3) at doses of 0.5 mg/kg, 0.3 mg/kg, and 0.1 mg/kg, respectively. The mice received saline were called as Control group, and the mice received DEX were divided into the groups of KET, KEP, S-KEP, R-KEP and Saline (n=10 to 14 mice in each group). The mice of KET, KEP, S-KEP, and R-KEP groups were subcutaneously injected with KET formulation, the formulation AS04 comprising KEP, the formulation AS06 comprising S-KEP, and the formulation AS07 comprising R-KEP at postnatal day 35, respectively. The KET formulation was 20% (w/w) ketamine HCl dissolved in 0.9% saline. The formulations AS04, AS06 and AS07 were prepared in Example 18. Saline group mice were subcutaneously injected with equal volumes of 0.9% saline.
Antidepressant effects were evaluated by forced swimming test (FST), which performed about every 10 days from the first day (P36) to the 63rd day (P98) after drug administration. All groups of mice were trained for swimming before drug administration. During the FST, mice were individually placed into 5 L glass cylinders (height 27 cm, diameter 18 cm) filled with 4 L of water (23±1° C.). The total duration of immobility time during 5 minutes of FST was observed. Results were presented as mean±SEM. Student's t-test was analyzed with the Saline group (DEX-treated mouse group injected with saline) versus the other groups at each time point. *p<0.05, **p<0.01, ***p<0.001, and ****p<0.0001 indicate significant differences compared to the Saline group.

ICR mice = assay: Sedation behavior by rodent sedation rating scale; type: in vivo; conditions: SC, 120 mg/kg ketamine free-base; for Sedation behavior (rodent sedation rating scale): immediately post administration to 28 days
Experimental: as §1
Furthermore, sedation behavior was also evaluated by rodent sedation rating scale (Table 28) immediately post drug administration to 28 days in this study.

[3] = Solubility test (USP guidance) in different pH media
[4] = in water; cited from earlier work
[5] = pH 7.4, 1% polysorbate 20 in medium, 37° C.
[6] = pH 4.5, 1% polysorbate 20 in medium, 37° C.
[7] = pH 6.8, 1% polysorbate 20 in medium, 37° C.

CN[C@@]1(c2ccccc2Cl)CCCCC1=O [R-ketamine pamoate salt (Crystal, ratio 2:1)]
Intrinsic dissolution rate [1, 5]: 0.025 mg/min/cm^2
BCS solubility classification [1]: Low
Antidepressant effects on FST after single injection [2]: rapid-onset antidepressant effects
Sedation or other ketamine-related psychotomimetic effects and nervous system disorders post administration (ICR mice): would not occur
Solubility ([3]; pH 1.2 medium, listed as R-ketamine pamoate salt (Ratio 2:1) Crystal): 1090 µg/mL
Solubility ([3]; pH 4.5 medium, listed as R-ketamine pamoate salt (Ratio 2:1) Crystal): 1180 µg/mL
Solubility ([3]; pH 6.8 medium, listed as R-ketamine pamoate salt (Ratio 2:1) Crystal): 400 µg/mL
Solubility ([3]; pH 7.4 medium, listed as R-ketamine pamoate salt (Ratio 2:1) Crystal): 510 µg/mL

CN[C@]1(c2ccccc2Cl)CCCCC1=O [S-ketamine pamoate salt (Crystal, ratio 2:1)]
Intrinsic dissolution rate [1, 5]: 0.027 mg/min/cm^2
BCS solubility classification [1]: Low
Antidepressant effects on FST after single injection [2]: rapid-onset antidepressant effects
Sedation or other ketamine-related psychotomimetic effects and nervous system disorders post administration (ICR mice): would not occur
Solubility ([3]; pH 1.2 medium, listed as S-ketamine pamoate salt (Ratio 2:1) Crystal): 1240 µg/mL
Solubility ([3]; pH 4.5 medium, listed as S-ketamine pamoate salt (Ratio 2:1) Crystal): 1610 µg/mL
Solubility ([3]; pH 6.8 medium, listed as S-ketamine pamoate salt (Ratio 2:1) Crystal): 390 µg/mL
Solubility ([3]; pH 7.4 medium, listed as S-ketamine pamoate salt (Ratio 2:1) Crystal): 500 µg/mL

CN[C@@]1(c2ccccc2Cl)CCCCC1=O [R-ketamine pamoate salt (Amorphous, ratio 2:1)]
Intrinsic dissolution rate [1, 5]: 0.021 mg/min/cm^2
BCS solubility classification [1]: Low
Solubility ([3]; pH 1.2 medium, listed as R-ketamine pamoate salt (Ratio 2:1) Amorphous): 1150 µg/mL
Solubility ([3]; pH 4.5 medium, listed as R-ketamine pamoate salt (Ratio 2:1) Amorphous): 990 µg/mL
Solubility ([3]; pH 6.8 medium, listed as R-ketamine pamoate salt (Ratio 2:1) Amorphous): 640 µg/mL
Solubility ([3]; pH 7.4 medium, listed as R-ketamine pamoate salt (Ratio 2:1) Amorphous): 950 µg/mL

CNC1(c2ccccc2Cl)CCCCC1=O.CNC1(c2ccccc2Cl)CCCCC1=O.O=C(O)c1cc2ccccc2c(Cc2c(O)c(C(=O)O)cc3ccccc23)c1O [R,S-ketamine pamoate salt (Amorphous, ratio 2:1)] [R, S-ketamine pamoate salt]
Intrinsic dissolution rate [1, 5]: 0.024 mg/min/cm^2
BCS solubility classification [1]: Low
Solubility ([3]; pH 1.2 medium, listed as R,S-ketamine pamoate salt (Ratio 2:1) Amorphous): 1310 µg/mL
Solubility ([3]; pH 4.5 medium, listed as R,S-ketamine pamoate salt (Ratio 2:1) Amorphous): 870 µg/mL
Solubility ([3]; pH 6.8 medium): 160 µg/mL
Solubility ([3]; pH 7.4 medium, listed as R,S-ketamine pamoate salt (Ratio 2:1) Amorphous): 180 µg/mL

CN[C@]1(c2ccccc2Cl)CCCCC1=O.Cl [S-ketamine HCl, S-ketamine hydrochloride, reference compound]
Intrinsic dissolution rate [1, 5]: 2.248 mg/min/cm^2
BCS solubility classification [1]: High

CNC1(c2ccccc2Cl)CCCCC1=O.Cl (stereo not drawn) [R-ketamine HCl, R-ketamine hydrochloride, reference compound]
Intrinsic dissolution rate [1, 5]: 2.356 mg/min/cm^2
BCS solubility classification [1]: High

CN[C@]1(c2ccccc2Cl)CCCCC1=O [S-ketamine pamoate salt (Amorphous, ratio 2:1)]
Intrinsic dissolution rate [1, 5]: 0.026 mg/min/cm^2
BCS solubility classification [1]: Low
Solubility ([3]; pH 1.2 medium, listed as S-ketamine pamoate salt (Ratio 2:1) Amorphous): 1000 µg/mL
Solubility ([3]; pH 4.5 medium, listed as S-ketamine pamoate salt (Ratio 2:1) Amorphous): 840 µg/mL
Solubility ([3]; pH 6.8 medium, listed as S-ketamine pamoate salt (Ratio 2:1) Amorphous): 480 µg/mL
Solubility ([3]; pH 7.4 medium, listed as S-ketamine pamoate salt (Ratio 2:1) Amorphous): 580 µg/mL

CNC1(c2ccccc2Cl)CCCCC1=O.O=C(O)c1cc2ccccc2c(Cc2c(O)c(C(=O)O)cc3ccccc23)c1O [R- or S-ketamine pamoate salt]
Solubility ([3]; pH 1.2 medium): 720 µg/mL
Solubility ([3]; pH 4.5 medium): 450 µg/mL
Solubility ([3]; pH 6.8 medium): 70 µg/mL
Solubility ([3]; pH 7.4 medium): 80 µg/mL

CNC1(c2ccccc2Cl)CCCCC1=O (stereo not drawn) [R,S-ketamine HCl, R, S-ketamine hydrochloride, reference compound]
Intrinsic dissolution rate ([1]; pH 1.2, 37° C.): 5.329 mg/min/cm^2
Intrinsic dissolution rate [1, 6]: 3.729 mg/min/cm^2
Intrinsic dissolution rate [1, 7]: 2.918 mg/min/cm^2
Intrinsic dissolution rate [1, 5]: 1.740 mg/min/cm^2
Antidepressant effects on FST after single injection [2]: rapid-onset antidepressant effects
Immobility time on FST [2]: reduced the immobility time
Time to full recovery from sedation-related behavior post administration (ICR mice): 2 h
Sedation behavior (rodent sedation rating scale) (ICR mice): mild sedation-related behavior
Solubility [4]: > 200000 µg/mL

CNC1(c2ccccc2Cl)CCCCC1=O.CNC1(c2ccccc2Cl)CCCCC1=O.O=C(O)c1cc2ccccc2c(Cc2c(O)c(C(=O)O)cc3ccccc23)c1O [R,S-ketamine pamoate salt (Crystal, ratio 2:1)] [R, S-ketamine pamoate salt]
Intrinsic dissolution rate ([1]; pH 1.2, 37° C.): 0.095 mg/min/cm^2
Intrinsic dissolution rate [1, 6]: 0.005 mg/min/cm^2
Intrinsic dissolution rate [1, 7]: 0.011 mg/min/cm^2
Intrinsic dissolution rate [1, 5]: 0.012 mg/min/cm^2
Antidepressant effects on FST after single injection [2]: rapid-onset antidepressant effects
Immobility time on FST [2]: reduced the immobility time
Sedation or other ketamine-related psychotomimetic effects and nervous system disorders post administration (ICR mice): would not occur
Sedation behavior (rodent sedation rating scale) (ICR mice): normal behavior
Solubility ([3]; pH 1.2 medium, listed as R, S-ketamine pamoate salt): 1680 µg/mL
Solubility ([3]; pH 4.5 medium, listed as R,S-ketamine pamoate salt (Ratio 2:1) Crystal): 1080 µg/mL
Solubility ([3]; pH 6.8 medium): 160 µg/mL
Solubility ([3]; pH 7.4 medium, listed as R,S-ketamine pamoate salt (Ratio 2:1) Crystal): 220 µg/mL
